Data from paper PMC11762167, “G Protein-Coupled Receptor 17 Inhibits Glucagon-like Peptide-1 Secretion via a Gi/o-Dependent Mechanism in Enteroendocrine Cells” (Biomolecules, 2024).
Starred links: 1 amine or outer side, 2 acyl side, 3 side chain; linkers in the order of their positions; H or OH if unused. Positions of bridges follow the written chain, without caps; N, C: chain ends. Non-standard residues stand in square brackets, D forms with d. Residues, ends and D or L forms follow the SMILES beside them. No end group written: not given here. X1 = CC(=O)NC(C(=O)OC(C(C)C)C(N[*:1])C(=O)[*:2])C(O)C(C)C; PhLac = O=C(O)[CH](O)Cc1ccccc1; NMeT = CN[CH](C(=O)O)[CH](C)O; NMeA = CN[CH](C)C(=O)O; NMeDha = C=C(NC)C(=O)O

Assays:
[1] = molecular target: T1, hGPR17L (Homo sapiens, UniProt Q13304); assay: GLP-1 secretion from GLUTag cells expressing hGPR17L; assay type: cell-based; set-up: host or cells: GLUTag cells (murine enteroendocrine line), adenoviral transduction
Procedure: (§1) GLUTag cells were maintained in Dulbecco’s Modified Eagle Medium (DMEM) supplemented with 10% fetal bovine serum and 1% penicillin–streptomycin in a humidified incubator at 37 °C and 5% CO2. For adenovirus transduction, GLUTag cells were seeded into poly-D-lysine coated 96-well plates or 4-chamber slides. The next day, cells were transduced with adenoviruses (100–1250 viral particles per cell at time of seeding) as indicated. After 24–30 h, adenovirus-containing media was changed to serum-free growth media for overnight serum starvation. The following day, GLUTag cells were used for cAMP or calcium signaling assays, GLP-1 secretion assays, or immunostaining and imaging.
(§2) GLUTag cells were seeded into poly-D-lysine-coated 96-well plates and transduced with adenovirus as specified above and then tested for GLP-1 secretion. Medium was removed and cells were washed two times with GLP-1 secretion buffer (138 mM NaCl, 4.5 mM KCl, 4.2 mM NaHCO3, 2.5 mM CaCl2, 1.2 mM MgCl2, 10 mM HEPES, 1 mM glucose, and 0.1% bovine serum albumin, pH 7.4). Cells were stimulated for 2 h with indicated treatments diluted in GLP-1 secretion buffer for a total volume of 200 µL/well at 37 °C and 5% CO2. Plates were then centrifuged at 300× g for 1 min at 4 °C, and 75 µL of the supernatant was removed and frozen at −80 °C until subsequent GLP-1 quantification. Total GLP-1 was quantified using the Meso Scale Discovery Total GLP-1 V-PLEX kit (Rockville, MD, USA; K1503PD) according to manufacturer’s instructions. For PTX treatment conditions, cells were pretreated with 100 ng/mL PTX overnight. For experiments with YM-254890, cells were pretreated for 15 min at 37 °C and 5% CO2.

[2] = tested on: GLUTag cells; assay: GLP-1 secretion from control-transduced or untransduced GLUTag cells; assay type: cell-based, murine
Procedure: as §1, §2

[3] = molecular target: T1, hGPR17L; assay: Endpoint cAMP (HTRF) in GLUTag cells expressing hGPR17L; assay type: cell-based; set-up: host or cells: GLUTag cells (murine enteroendocrine line), adenoviral transduction; settings: for Predicted (LS) mean diff.: Fig 2B, Forskolin, +Vehicle vs. +100 nM YM-254890
Procedure: as §1
Endpoint cAMP measurements were conducted as follows. GLUTag cells were seeded into poly-D-lysine-coated 96-well plates and transduced with adenovirus as specified above and then tested for cAMP signaling. Medium was removed and cells were washed with cAMP stimulation buffer (Hanks’ balanced salt solution (HBSS), 20 mM HEPES, pH 7.4) and then incubated in cAMP stimulation buffer for 30 min at 37 °C and 5% CO2. Cells were then treated for 30 min with agonist and forskolin in the presence of 500 µM IBMX at 37 °C and 5% CO2. Stimulation buffer was then decanted, and cAMP lysis buffer (50 mM HEPES, 10 mM CaCl2, 0.35% Triton X-100, and 500 µM IBMX) was added and shaken at 700 rpm for 1 h. Lysate was transferred to a 384-well plate, and the cAMP levels were quantified using the Cisbio HTRF cAMP (Gi kit; Revvity, Waltham, MA, USA) according to the manufacturer’s protocol.

[4] = molecular target: T1, hGPR17L; assay: Calcium flux (Calcium 6) in GLUTag cells expressing hGPR17L; assay type: cell-based; set-up: host or cells: GLUTag cells (murine enteroendocrine line), adenoviral transduction
Procedure: as §1
GLUTag cells were seeded into black, clear bottom, poly-D-lysine-coated 96-well plates. Cells were transduced and serum starved as specified above. Growth medium was then replaced with 100 μL/well assay buffer (HBSS, 20 mM HEPES, pH 7.4) and 100 μL/well Calcium 6 loading dye (R8190; Molecular Devices, San Jose, CA, USA). During dye loading, cells were incubated at 37 °C and 5% CO2 for 2 h. MDL29,951 or KCl was added to the wells and fluorescence (485 nm excitation, 525 nm emission, and 515 nm automatic emission cutoff) was measured using a Molecular Devices FlexStation3 (Molecular Devices) at 37 °C. For experiments with PTX, cells were pretreated with 100 ng/mL PTX overnight and 100 ng/mL PTX was included with Calcium 6 loading dye for calcium flux assays. For experiments with YM-254890, cells were pretreated for 30 min at 37 °C.

T1 sequence (Q13304 whole entry): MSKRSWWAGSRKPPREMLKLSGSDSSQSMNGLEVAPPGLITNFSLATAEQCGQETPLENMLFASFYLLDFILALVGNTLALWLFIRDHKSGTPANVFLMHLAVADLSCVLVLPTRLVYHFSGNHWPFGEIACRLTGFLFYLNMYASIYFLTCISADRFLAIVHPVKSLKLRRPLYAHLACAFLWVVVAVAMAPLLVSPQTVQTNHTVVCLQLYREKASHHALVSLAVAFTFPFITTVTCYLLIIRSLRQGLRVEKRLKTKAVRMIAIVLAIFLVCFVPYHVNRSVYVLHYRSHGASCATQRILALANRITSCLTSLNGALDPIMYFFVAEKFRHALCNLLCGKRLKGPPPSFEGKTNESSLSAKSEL

Q: `O=C(O)c1ccc(OCCCc2ccc(OCCCCOC3CCCCC3)cc2)c(C(=O)NC2CCCC(C(=O)O)C2)c1` (centres unmarked) [HAMI3379] was tested. Which “effect on MDL29,951-mediated inhibition of F/I-stimulated GLP-1 secretion” value ([1]; 10 µM HAMI3379) did it give?
A: The value was “significantly attenuated”.

Q: For `Cc1onc(-c2ccccc2Cl)c1C(=O)N(C)c1ccc(Cl)cc1` [GPBAR-A], which “increase in GLP-1 secretion” value ([2]; 10 µM GPBAR-A, control transduction condition) is on record?
A: The value was 2.67 ± 0.17 fold.

Q: What does the source list for `CCCCC[C@H](O)/C=C/[C@H]1[C@H](O)CC(=O)[C@@H]1C/C=C\CCCC(=O)O` [PGE2, prostaglandin E2]?
A: increase in GLP-1 secretion ([2]; 300 nM PGE2, control transduction condition): 1.90 ± 0.06 fold; cAMP levels in response to PGE2 stimulation, % of the control-transduced cells ([3]; 300 nM PGE2, hGPR17L-expressing cells): 83 ± 5.5%

Q: With `CCCCCCCCCCCCCC(=O)O[C@@H]1[C@@H](C)[C@@]2(O)[C@@H](C=C(CO)C[C@]3(O)C(=O)C(C)=C[C@@H]23)[C@@H]2C(C)(C)[C@]12OC(C)=O` [PMA, phorbol 12-myristate 13-acetate] as the molecule, how does the “increase in GLP-1 secretion” value ([2]; 300 nM PMA, control transduction condition) read?
A: Its value is 4.14 ± 0.18 fold.

Q: How did the “effect on F/I-stimulated GLP-1 secretion” value ([2]; 1 µM SST, control- and hGPR17L-transduced cells (Figure S4A,B)) turn out when “somatostatin (AGCKNFFWKTFTSC; ends and bridges not checked; cysteine pairing not given here; UniProt P61278 103-116, looked up) [SST, Endogenous somatostatin receptor agonist]” was run?
A: Its value is “inhibited”.

Q: Which results are given for `C=C1C(=O)NC(C)C(=O)N(C)C(C)C(=O)NC(C(OC(=O)C(NC(C)=O)C(O)C(C)C)C(C)C)C(=O)N(C)C(C(C)OC)C(=O)OC(C)C(NC(C)=O)C(=O)OC(Cc2ccccc2)C(=O)N1C` (centres unmarked) [YM-254890] (Ac-T[PhLac][NMeDha]A[NMeA][X1][NMeT](Me); ester 1-C; configuration not given here)?
A: effect on F/I-stimulated GLP-1 secretion ([2]; 100 nM YM-254890, GLUTag cells): inhibited; effect on F/I-stimulated GLP-1 secretion ([2]; 3 µM YM-254890, control cells): strong inhibitory effects; effect on PMA-stimulated GLP-1 secretion ([2]; YM-254890 concentration–response, 300 nM PMA): no effect; effect on basal cAMP ([3]; 100 ng/mL PTX or 100 nM YM-254890, control- or hGPR17L-transduced): no effects; Predicted (LS) mean diff. ([3]; log [MDL29,951] (M) -4.0): 17.41; Predicted (LS) mean diff. ([3]; log [MDL29,951] (M) -4.6): 19.49; Predicted (LS) mean diff. ([3]; log [MDL29,951] (M) -5.2): 17.04; Predicted (LS) mean diff. ([3]; log [MDL29,951] (M) -5.8): 11.34; Predicted (LS) mean diff. ([3]; log [MDL29,951] (M) -6.4): 5.843; Predicted (LS) mean diff. ([3]; log [MDL29,951] (M) -7.0): 2.922; Predicted (LS) mean diff. ([3]; log [MDL29,951] (M) -7.6): 8.08; Predicted (LS) mean diff. ([3]; log [MDL29,951] (M) -8.2): 13.01; Predicted (LS) mean diff. ([3]; log [MDL29,951] (M) -8.8): 10.15; Predicted (LS) mean diff. ([3]; log [MDL29,951] (M) -9.4): 6.783; effect on 15 mM KCl-stimulated calcium mobilization ([4]; 100 ng/mL PTX or 100 nM YM-254890, Figure 2D): no effect; concentration giving robust inhibition of MDL29,951-stimulated calcium mobilization ([4]; 1 µM MDL29,951, concentration-response): ~ 100 nM; effect on 15 mM KCl-stimulated calcium flux ([4]; YM-254890 concentration-response, Figure S5D): no effect; effect on PMA-stimulated GLP-1 secretion ([1]; 100 nM YM-254890, 300 nM PMA, control or hGPR17L-expressing cells): no effect; effect on MDL29,951-mediated inhibition of PMA-stimulated GLP-1 secretion ([1]; 100 nM YM-254890, 100 µM MDL29,951, 300 nM PMA): no effect; effect on F/I-stimulated GLP-1 secretion ([1]; 3 µM YM-254890, hGPR17L-expressing cells): strong inhibitory effects
